Laboratory results published in patent US20230132526A1 (Institute of Materia Medica, Chinese Academy of Medical …, priority 2020, published 2023).

How the values were obtained:
[1] = tested on: phosphorylated Akt; experiment: Level of phosphorylated Akt by western blotting in primary mouse hepatocytes treated with EphB4 inhibitor; type: cell-based; conditions: LCA 10 μM and 20 μM overnight, 10 nM insulin 20 min before collection, western blotting (FIG. 2C)
Method: After the liver tissue was fully digested, it was suspended with DMEM medium, flew through a cell sieve with a diameter of 70 μm, and was centrifugated, thereby the primary hepatocytes were obtained. The cells were resuspended in complete culture medium and dispersed into a petri dish or plate. After the cells were attached, they were treated with LCA (10 μM and 20 μM) overnight.

[2] = tested on: flag-InsR; experiment: Protein level of flag-InsR by Western blotting in HEK293T cells co-expressing insulin receptor and EphB4, treated with degradation pathway inhibitors; type: cell-based; conditions: HEK293T cells co-expressing flag-InsR and EphB4-HA; ammonium chloride 5 mM, chloroquine 10 μM, 8 h; Western blotting (FIG. 2B)
Method: GFP was co-transfected as a reference for foreign proteins. The cells were treated with proteasome degradation pathway inhibitor MG132 (10 μM), lysosome degradation pathway inhibitor ammonium chloride (5 mM) and chloroquine (10 μM) for 8 h.

SMILES | level of phosphorylated Akt [1] | protein level of flag-InsR (effect on EphB4-promoted insulin receptor degradation) [2]
C[C@H](CCC(=O)O)[C@H]1CC[C@H]2[C@@H]3CC[C@@H]4C[C@H](O)CC[C@]4(C)[C@H]3CC[C@]12C [LCA, 3α-hydroxy-5β-cholanoic acid] | increase the level of phosphorylated Akt | –
Cl.N [ammonium chloride, Ammonium chloride] | – | partially rescue the promoting effect of EphB4 on insulin receptor degradation to some extent
CCN(CC)CCCC(C)Nc1ccnc2cc(Cl)ccc12 (stereo not drawn) [chloroquine] | – | partially rescue the promoting effect of EphB4 on insulin receptor degradation to some extent
